Laboratory results as given in ChEMBL document CHEMBL1153212, “P4 capped amides and lactams as HCV NS3 protease inhibitors with improved potency and DMPK profile” (Bioorg Med Chem Lett, 2010).

Experiments:
[1] = Inhibition of HCV NS4A-tethered single chain NS3 serine protease by spectrophotometric assay; design: species or system Hepacivirus hominis
[2] = Selectivity for HCV NS4A-tethered single chain NS3 serine protease over human neutrophil elastase
[3] = test system: Hepatitis C virus; test: Antiviral activity against HCV assessed as inhibition of viral RNA replication; format: functional, Hepacivirus hominis
[4] = AUC in rat at 10 mg/kg, po; format: ADME, organism-based; design: dose 10 mg/kg, route oral; details: plasma

C=CCNC(=O)C(=O)C(CCC)NC(=O)[C@@H]1[C@@H]2[C@H](CN1C(=O)[C@@H](NC(=O)N[C@@H](CN1CCCCC1=O)C(C)(C)C)C(C)(C)C)C2(C)C (stereo not given in full)
Ki [1]: 14 nM
Ratio [2]: 320
EC90 [3]: 350 nM

C=CCNC(=O)C(=O)C(CCC)NC(=O)[C@@H]1[C@@H]2[C@H](CN1C(=O)[C@@H](NC(=O)N[C@@H](CN1CCCNC1=O)C(C)(C)C)C(C)(C)C)C2(C)C (stereo not given in full)
Ki [1]: 4.9 nM
Ratio [2]: 360
EC90 [3]: 180 nM
AUC [4]: 0.07 µM·h

C=CCNC(=O)C(=O)C(CCC)NC(=O)[C@@H]1[C@@H]2[C@H](CN1C(=O)[C@@H](NC(=O)N[C@@H](CN1CCC(C)(C)CC1=O)C(C)(C)C)C(C)(C)C)C2(C)C (stereo not given in full)
Ki [1]: 17 nM
Ratio [2]: 310
EC90 [3]: 80 nM
AUC [4]: 2.3 µM·h

C=CCNC(=O)C(=O)C(CCC)NC(=O)[C@@H]1[C@@H]2[C@H](CN1C(=O)[C@@H](NC(=O)N[C@@H](CN1CCCC(C)(C)C1=O)C(C)(C)C)C(C)(C)C)C2(C)C (stereo not given in full)
Ki [1]: 89 nM
Ratio [2]: 90

C=CCNC(=O)C(=O)C(CCC)NC(=O)[C@@H]1[C@@H]2[C@H](CN1C(=O)[C@@H](NC(=O)N[C@@H](CN1CCCC1=O)C(C)(C)C)C(C)(C)C)C2(C)C (stereo not given in full)
Ki [1]: 37 nM
Ratio [2]: 60
EC90 [3]: 700 nM

C=CCNC(=O)C(=O)C(CCC)NC(=O)[C@@H]1[C@@H]2[C@H](CN1C(=O)[C@@H](NC(=O)N[C@@H](CN1CC3CCC(C3)C1=O)C(C)(C)C)C(C)(C)C)C2(C)C (stereo not given in full)
Ki [1]: 8 nM
Ratio [2]: 613
EC90 [3]: 60 nM
AUC [4]: 0.53 µM·h

C=CCNC(=O)C(=O)C(CCC)NC(=O)[C@@H]1[C@@H]2[C@H](CN1C(=O)[C@@H](NC(=O)N[C@@H](CN1Cc3ccccc3C1=O)C(C)(C)C)C(C)(C)C)C2(C)C (stereo not given in full)
Ki [1]: 40 nM
Ratio [2]: 1500

C=CCNC(=O)C(=O)C(CCC)NC(=O)[C@@H]1[C@@H]2[C@H](CN1C(=O)[C@@H](NC(=O)N[C@@H](CN1CCCOC1=O)C(C)(C)C)C(C)(C)C)C2(C)C (stereo not given in full)
Ki [1]: 10 nM
Ratio [2]: 100
EC90 [3]: 350 nM

C=CCNC(=O)C(=O)C(CCC)NC(=O)[C@@H]1[C@@H]2[C@H](CN1C(=O)[C@@H](NC(=O)N[C@@H](CN(C)C(=O)C1CC1)C(C)(C)C)C(C)(C)C)C2(C)C (stereo not given in full)
Ki [1]: 91 nM
Ratio [2]: 280

C=CCNC(=O)C(=O)C(CCC)NC(=O)[C@@H]1[C@@H]2[C@H](CN1C(=O)[C@@H](NC(=O)N[C@@H](CN(C)C(=O)C(C)(C)C)C(C)(C)C)C(C)(C)C)C2(C)C (stereo not given in full)
Ki [1]: 23000 nM

C=CCNC(=O)C(=O)C(CCC)NC(=O)[C@@H]1[C@@H]2[C@H](CN1C(=O)[C@@H](NC(=O)N[C@@H](CN(C)C(C)=O)C(C)(C)C)C(C)(C)C)C2(C)C (stereo not given in full)
Ki [1]: 37 nM
Ratio [2]: 150
EC90 [3]: 550 nM

C=CCNC(=O)C(=O)C(CCC)NC(=O)[C@@H]1[C@@H]2[C@H](CN1C(=O)[C@@H](NC(=O)N[C@@H](CN(C)C(=O)C(F)(F)F)C(C)(C)C)C(C)(C)C)C2(C)C (stereo not given in full)
Ki [1]: 42 nM
Ratio [2]: 75

C=CCNC(=O)C(=O)C(CCC)NC(=O)[C@@H]1[C@@H]2[C@H](CN1C(=O)[C@@H](NC(=O)N[C@@H](CN1Cc3ccccc3CC1=O)C(C)(C)C)C(C)(C)C)C2(C)C (stereo not given in full)
Ki [1]: 19 nM
Ratio [2]: 250
EC90 [3]: 200 nM

C=CCNC(=O)C(=O)C(CCC)NC(=O)[C@@H]1[C@@H]2[C@H](CN1C(=O)[C@@H](NC(=O)N[C@@H](CN1CCC(C)(C)CC1=O)C(C)(C)C)C1CCCCC1)C2(C)C (stereo not given in full)
Ki [1]: 1.9 nM
Ratio [2]: 60
EC90 [3]: 45 nM
AUC [4]: 2.09 µM·h

C=CCNC(=O)C(=O)C(CC1CC1)NC(=O)[C@@H]1[C@@H]2[C@H](CN1C(=O)[C@@H](NC(=O)N[C@@H](CN1CCC(C)(C)CC1=O)C(C)(C)C)C(C)(C)C)C2(C)C (stereo not given in full)
Ki [1]: 15 nM
Ratio [2]: 870
EC90 [3]: 70 nM
AUC [4]: 3.52 µM·h

C=CCNC(=O)C(=O)C(CC1CCC1)NC(=O)[C@@H]1[C@@H]2[C@H](CN1C(=O)[C@@H](NC(=O)N[C@@H](CN1CCC(C)(C)CC1=O)C(C)(C)C)C(C)(C)C)C2(C)C (stereo not given in full)
Ki [1]: 28 nM
Ratio [2]: 1900
EC90 [3]: 70 nM
AUC [4]: 1 µM·h

C#CCCC(NC(=O)[C@@H]1[C@@H]2[C@H](CN1C(=O)[C@@H](NC(=O)N[C@@H](CN1CCC(C)(C)CC1=O)C(C)(C)C)C(C)(C)C)C2(C)C)C(=O)C(=O)NCC=C (stereo not given in full)
Ki [1]: 5 nM
Ratio [2]: 210
EC90 [3]: 60 nM
AUC [4]: 0.49 µM·h

C=CCNC(=O)C(=O)C(CCC)NC(=O)[C@@H]1[C@@H]2[C@H](CN1C(=O)[C@@H](NC(=O)OC(C)(C)C)C(C)(C)C)C2(C)C (stereo not given in full)
Ki [1]: 1500 nM

C=CCNC(=O)C(=O)C(CCC)NC(=O)[C@@H]1[C@@H]2[C@H](CN1C(=O)[C@@H](NC(=O)N[C@@H](CN1CCCCC1)C(C)(C)C)C(C)(C)C)C2(C)C (stereo not given in full)
Ki [1]: 2300 nM

C=CCNC(=O)C(=O)C(CCC)NC(=O)[C@@H]1[C@@H]2[C@H](CN1C(=O)[C@@H](NC(=O)N[C@@H](CN1CCCCC1=O)C(C)(C)C)C1CCCCC1)C2(C)C (stereo not given in full)
Ki [1]: 1.8 nM
Ratio [2]: 7
EC90 [3]: 110 nM
AUC [4]: 0.7 µM·h

C=CCNC(=O)C(=O)C(CCC)NC(=O)[C@@H]1[C@@H]2[C@H](CN1C(=O)[C@@H](NC(=O)N[C@@H](CN1CCCCC1=O)C(C)(C)C)C1Cc3ccccc3C1)C2(C)C (stereo not given in full)
Ki [1]: 9 nM
Ratio [2]: 18
EC90 [3]: 80 nM
AUC [4]: 0.68 µM·h

C=CCNC(=O)C(=O)C(CCC)NC(=O)[C@@H]1[C@@H]2[C@H](CN1C(=O)[C@@H](NC(=O)N[C@@H](CN1CCC(C)(C)CC1=O)C(C)(C)C)C1Cc3ccccc3C1)C2(C)C (stereo not given in full)
Ki [1]: 7 nM
Ratio [2]: 110
EC90 [3]: 80 nM

C=CCNC(=O)C(=O)C(CCCC)NC(=O)[C@@H]1[C@@H]2[C@H](CN1C(=O)[C@@H](NC(=O)N[C@@H](CN1CCC(C)(C)CC1=O)C(C)(C)C)C(C)(C)C)C2(C)C (stereo not given in full)
Ki [1]: 19 nM
Ratio [2]: 850
EC90 [3]: 80 nM

CC(C)(C)NC(=O)N[C@H](C(=O)N1C[C@H]2[C@@H]([C@H]1C(=O)NC(CC1CCC1)C(=O)C(N)=O)C2(C)C)C(C)(C)C (stereo not given in full) [BOCEPREVIR]
Ki [1]: 14 nM
EC90 [3]: 350 nM
